From ChEMBL document CHEMBL5233255, “Natural and nature-inspired stilbenoids as antiviral agents” (Eur J Med Chem, 2020) come the findings set out here.

Data set [1] in a line: Selectivity index, ratio of CC50 for cytotoxicity against MDCK cells to IC50 for influenza A virus A/Guangdong/243/72 ([…]) infected in MDCK cells. The following applies: dog, read-out: Ratio CC50/IC50. The data set is classed as toxicity, cell-based.
Data set [2] deals with Influenza A virus. Nature of the data set: Antiviral activity against influenza A virus A/Guangdong/243/72 ([…]) infected in MDCK cells assessed as inhibition of virus-induced cytopathic effect. The data set is classed as functional, organism-based.
A short description of data set [3]: Inhibition of HIV-1 integrase catalysed 3' processing activity by densitometric analysis. More on the design: species or system Human immunodeficiency virus 1.
Data set [4] is described as follows: Inhibition of recombinant HIV-1 integrase catalysed strand transfer activity measured after 60 mins by electrochemiluminescent plate-based assay. More on the design: species or system Human immunodeficiency virus 1.
The subject of data set [5] is Human immunodeficiency virus 1. Nature of the data set: Antiviral activity against HIV-1 infected in HEK293T cells. The data set is classed as functional, organism-based. The following applies: Human immunodeficiency virus 1, HEK-293T.
Data set [6] is described as follows: Cytotoxicity against human MT4 cells expressing eGFP under control of HIV-1 LTR promoter sequence. Format: toxicity, cell-based.
A short description of data set [7]: Selectivity index, ratio of CC50 for cytotoxicity against human MT4 cells expressing eGFP under control of HIV-1 LTR promoter sequence to EC50 for antiviral activity against HIV-1 infected in human MT4 cells expressing eGFP under control of HIV-1 LTR promoter sequence. The data set is classed as toxicity, cell-based. The following applies: read-out: Ratio CC50/EC50.

Data set [8] has as its system Human immunodeficiency virus 1. Description: Antiviral activity against VSV pseudo-typed HIV-1 infected in human MT4 cells expressing eGFP under control of HIV-1 LTR promoter sequence. The following applies: Human immunodeficiency virus 1, MT4. The data set is classed as functional, organism-based.
The nature of data set [9]: Cytotoxicity against HEK293T cells. The data set is classed as toxicity, cell-based, HEK-293T. The following applies: human, read-out: TC50 (the source's name).
The test system of data set [10] is Influenza A virus. Description: Antiviral activity against influenza A virus A/PR/8/34 (H1N1) infected in human A549 cells assessed as inhibition of RANTES production incubated for 48 hrs by ELISA. Format: functional, organism-based. The following applies: A549, 48 h.
Data set [11] can be described thus: Cytotoxicity against human A549 cells assessed as reduction in cell viability by Alamar blue assay. Format: toxicity, cell-based.
The nature of data set [12]: Therapeutic index, ratio of CC50 for cytotoxicity against human C8166 cells to EC50 for antiviral activity against HIV-1 infected in C8166 cells. Format: toxicity, cell-based. The following applies: read-out: Ratio CC50/EC50.
Data set [13] deals with Human immunodeficiency virus 1. Nature of the data set: Antiviral activity against HIV-1 infected in human C8166 cells assessed as inhibition of viral replication. The data set is classed as functional, organism-based. The following applies: Human immunodeficiency virus 1, C8166.
The nature of data set [14]: Cytotoxicity against human C8166 cells assessed as inhibition of cell growth by MTT assay. The data set is classed as toxicity, cell-based.

Molecules are shown by their SMILES. In brackets after ≈: the same amount, converted by molar mass.

Consider `COc1cc(/C=C/c2cc(O)cc(O)c2)ccc1O`, for which the selectivity ratio in [1] worked out at 8.99. Besides, the IC50 with Influenza A virus [2] was found to be 4.28 µg/mL (≈ 16.6 µM).
For `Nc1ccc(/C=C/c2ccc(N)cc2S(=O)(=O)O)c(S(=O)(=O)O)c1`, the IC50 in [3] and in [4] was more than 111 µM in each case.
In [5], `Oc1cc(O)cc(-c2ccc3cc(O)ccc3c2)c1` returned an EC50 of more than 75 µM.
On the same count and under the same terms, with `O=C(/C=C/c1ccc(O)cc1)c1cc(O)cc(O)c1` the figure was more than 75 µM; with `Oc1ccc(-n2cc(-c3cc(O)cc(O)c3)nn2)cc1`, more than 75 µM.
With `O=S(=O)(O)c1cc(/N=N/c2cc(S(=O)(=O)O)c3ccccc3c2O)ccc1/C=C/c1ccc(/N=N/c2cc(S(=O)(=O)O)c3ccccc3c2O)cc1S(=O)(=O)O`, the IC50 in data set [3] was 0.32 µM; in data set [4], 0.18 µM. In [6], this compound had a CC50 of 59 µM. In data set [7], the selectivity ratio was found to be 19.2. The same compound registered a half-maximal effective concentration (EC50) in [8] of 3.07 µM.
`O=[N+]([O-])c1ccc(/C=C/c2ccc([N+](=O)[O-])cc2S(=O)(=O)O)c(S(=O)(=O)O)c1`: the half-maximal inhibitory concentration (IC50) in data set [3] and in data set [4] was more than 111 µM throughout.
Consider `Oc1cc(O)cc(-c2ccc(-c3ccncc3)cc2)c1`, for which the EC50 in data set [5] is more than 100 µM.
Same read-out and setting: with `Oc1cc(O)cc(-c2ccc3cnccc3c2)c1` the figure was more than 75 µM.
`Oc1ccc(-c2c(-c3cc(O)cc(O)c3)oc3ccccc23)cc1` yielded an EC50 in data set [5] of 35 µM. For the same compound, the CC50 in data set [9] was determined as 84.8 µM.
`Oc1ccc(-c2c(-c3cc(O)cc(O)c3)sc3ccccc23)cc1`: the EC50 in data set [5] came out at 34.4 µM. Besides, the CC50 in data set [9] stood at 131 µM.
As to `Oc1ccc(-c2oc3ccccc3c2-c2cc(O)cc(O)c2)cc1`, it took 65.1 µM to reach a half-maximal effect in data set [5] (EC50). Further, the CC50 in data set [9] amounted to 108 µM.
The compound `Oc1ccc(-c2sc3ccccc3c2-c2cc(O)cc(O)c2)cc1` gave an EC50 in data set [5] of 45.1 µM. Besides, in [9], the CC50 stood at 118 µM.
On to `Oc1ccc(-c2ncc(-c3cc(O)cc(O)c3)cn2)cc1`, for which the EC50 in data set [5] was more than 75 µM.
With `Oc1ccc(-c2cnc(-c3cc(O)cc(O)c3)nc2)cc1`, the concentration for a half-maximal effect (EC50) in data set [5] was more than 75 µM.
For `Oc1ccc(-c2cc(-c3cc(O)cc(O)c3)on2)cc1`, the EC50 in [5] is more than 75 µM.
Compound `Oc1ccc(-c2ccc(-c3cc(O)cc(O)c3)cc2)cc1` gave an EC50 in data set [5] of 8.8 µM. Moreover, in [9], the CC50 came to 179 µM.
Regarding `O=Cc1ccc2c(c1)C(c1cc(O)cc3c1[C@H](c1cc(O)cc(O)c1)[C@@H](c1ccc(O)cc1)O3)[C@H](c1ccc(O)cc1)O2` (some centres not stated), the half-maximal effective concentration (EC50) with Influenza A virus [10] amounted to 8.48 µM. In addition, the CC50 in data set [11] was more than 400 µM.
On to `O=S(=O)([O-])O[C@H]1[C@H](O)[C@@H](O)[C@H](Oc2cc(O)cc(/C=C\c3ccc(O)cc3)c2)O[C@@H]1CO.[Na+]`, for which the selectivity ratio in data set [12] was 1.17. The EC50 in [13] came out at 84.8 µg/mL. Further, the CC50 in [14] is 98.8 µg/mL.
The corresponding values for `O=S(=O)([O-])Oc1cc(/C=C/c2ccc(O)cc2)cc(O[C@@H]2O[C@H](CO)[C@@H](O)[C@H](O)[C@H]2O)c1.[Na+]` are 5.87, 89.7 µg/mL and 527 µg/mL.
